Measurements as given in patent US11767322B2 (BRISTOL-MYERS SQUIBB COMPANY, priority 2020, dated 2023).

System: MLKL phosphorylation in HT29-L23 human colorectal adenocarcinoma cells
Test: MLKL phosphorylation high-content assay
Format: cell-based
Details: HT29-L23 cells; necroptosis induced with TNFα, SMAC mimetic and Z-VAD, 6 h; maximal inhibition defined by Nec1s; read-out: pMLKL IC50

First: [2H]C([2H])([2H])C(O)(c1ccc(F)cc1)C(F)CNC(=O)c1c(Cl)ccc(-c2ccn3nc(N)nc3c2)c1F (single isomer, unassigned) [Example 237, 3-(2-amino-[1,2,4]triazolo[1,5-a]pyridin-7-yl)-6-chloro-2-fluoro-N-(2-fluoro-3-(4-fluorophenyl)-3-hydroxybutyl-4,4,4-d3)benzamide]
Second: Cc1ccc(-c2ccn3nc(N)nc3c2)c(F)c1C(=O)NCC(F)(F)C(C)(O)c1ccc(F)cc1 (single isomer, unassigned) [Example 62, 3-(2-amino-[1,2,4]triazolo[1,5-a]pyridin-7-yl)-N-(2,2-difluoro-3-(4-fluorophenyl)-3-hydroxybutyl)-2-fluoro-6-methylbenzamide]
The IC50 of the first is 78-fold higher: 86 nM for the first, 1.1 nM for the second.

First: COc1ccc(-c2ccn3nc(N)nc3c2)c(F)c1C(=O)NCC(F)(F)C(O)c1ccc(F)cc1 (single isomer, unassigned) [Example 125, 3-(2-amino-[1,2,4]triazolo[1,5-a]pyridin-7-yl)-N-(2,2-difluoro-3-(4-fluorophenyl)-3-hydroxypropyl)-2-fluoro-6-methoxybenzamide]
Second: Nc1nc2cc(-c3ccc(Cl)c(C(=O)NCC(F)(F)C(O)c4ccc(Cl)c(Cl)n4)c3F)ccn2n1 (single isomer, unassigned) [Example 271]
The IC50 of the first is 1.6-fold higher: 2.9 nM for the first, 1.8 nM for the second.

Compared with `COc1ccc(-c2ccn3nc(N)nc3c2)c(F)c1C(=O)NCC(F)(F)C(O)c1ccc(F)cc1` (single isomer, unassigned) [Example 124, 3-(2-amino-[1,2,4]triazolo[1,5-a]pyridin-7-yl)-N-(2,2-difluoro-3-(4-fluorophenyl)-3-hydroxypropyl)-2-fluoro-6-methoxybenzamide], `[2H]C([2H])([2H])C(O)(c1ccc(F)cc1)C(F)CNC(=O)c1c(Cl)ccc(-c2ccn3nc(N)nc3c2)c1F` (single isomer, unassigned) [Example 240, 3-(2-amino-[1,2,4]triazolo[1,5-a]pyridin-7-yl)-6-chloro-2-fluoro-N-(2-fluoro-3-(4-fluorophenyl)-3-hydroxybutyl-4,4,4-d3)benzamide] is 2.2-fold higher in IC50: 1.4 nM for the first, 3.1 nM for the second. The first is the more potent here.

Same assay, conditions: Homo sapiens, 6 h, HT29-L23 cells; necroptosis induced with TNFα, SMAC mimetic and Z-VAD, 6 h; maximal inhibition defined by Nec1s; read-out: pMLKL IC50

First: C[C@@](O)(c1ccc(F)cc1)[C@H](F)CNC(=O)c1c(Cl)ccc(-c2ccn3nc(N)nc3c2)c1F [Example 210, 3-(2-amino-[1,2,4]triazolo[1,5-a]pyridin-7-yl)-6-chloro-2-fluoro-N-((2R,3R)-2-fluoro-3-(4-fluorophenyl)-3-hydroxybutyl)benzamide]
Second: C[C@@](O)(c1ccc(F)cc1)[C@@H](F)CNC(=O)c1c(Cl)ccc(-c2ccn3nc(N)nc3c2)c1F [Example 211, 3-(2-amino-[1,2,4]triazolo[1,5-a]pyridin-7-yl)-6-chloro-2-fluoro-N-((2S,3R)-2-fluoro-3-(4-fluorophenyl)-3-hydroxybutyl)benzamide]
The IC50 of the first is 18-fold lower: 2.5 nM for the first, 45 nM for the second. The first is the more potent here.

`CCc1ccc(-c2ccn3nc(N)nc3c2)c(F)c1C(=O)NCC(F)(F)C(O)c1ccc(F)cc1` (single isomer, unassigned) [Example 120, 3-(2-amino-[1,2,4]triazolo[1,5-a]pyridin-7-yl)-N-(2,2-difluoro-3-(4-fluorophenyl)-3-hydroxypropyl)-6-ethyl-2-fluorobenzamide] and `Nc1nc2cc(-c3ccc(Cl)c(C(=O)NCC(F)(F)[C@H](F)c4ccc(F)cc4)c3F)ccn2n1` [Example 288, (R)-3-(2-amino-[1,2,4]triazolo[1,5-a]pyridin-7-yl)-6-chloro-2-fluoro-N-(2,2,3-trifluoro-3-(4-fluorophenyl)propyl)benzamide] are within 1.5-fold of each other in IC50: 1.4 nM for the first, 1 nM for the second.

Compared with `Nc1nc2cc(-c3cc(C(=O)NCC(F)(F)C(O)c4ccc(F)cc4)c(Cl)cc3Cl)ccn2n1` (racemic) [Example 127], `Cc1c(C(=O)NCC(F)(F)C(O)c2ccc(Cl)cc2)cc(-c2ccn3nc(N)nc3c2)c(F)c1F` (single isomer, unassigned) [Example 104, 5-(2-amino-[1,2,4]triazolo[1,5-a]pyridin-7-yl)-N-(3-(4-chlorophenyl)-2,2-difluoro-3-hydroxypropyl)-3,4-difluoro-2-methylbenzamide] is 32-fold lower in IC50: 9.7 nM for the first, 0.3 nM for the second.

For `Nc1nc2cc(-c3ccc(F)c(C(=O)NCC(F)(F)[C@@H](F)c4ccc(F)cc4)c3F)ccn2n1` [Example 285, (S)-3-(2-amino-[1,2,4]triazolo[1,5-a]pyridin-7-yl)-2,6-difluoro-N-(2,2,3-trifluoro-3-(4-fluorophenyl)propyl)benzamide], the IC50 was 0.8 nM.

Same assay, conditions: Homo sapiens, 6 h, read-out: pMLKL IC50, HT29-L23 cells; necroptosis induced with TNFα, SMAC mimetic and Z-VAD, 6 h; maximal inhibition defined by Nec1s

Going from `[2H]C([2H])([2H])c1ccc(-c2ccn3nc(N)nc3c2)c(F)c1C(=O)NCC(F)(F)C(O)(c1ccc(F)cc1)C([2H])([2H])[2H]` (single isomer, unassigned) [Example 243, 3-(2-amino-[1,2,4]triazolo[1,5-a]pyridin-7-yl)-N-(2,2-difluoro-3-(4-fluorophenyl)-3-hydroxybutyl-4,4,4-d3)-2-fluoro-6-(methyl-d3)benzamide] to `[2H]C([2H])([2H])OC(c1ccc(F)cc1)C(F)(F)CNC(=O)c1c(C)ccc(-c2ccn3nc(N)nc3c2)c1F` (single isomer, unassigned) [Example 235, 3-(2-amino-[1,2,4]triazolo[1,5-a]pyridin-7-yl)-N-(2,2-difluoro-3-(4-fluorophenyl)-3-(methoxy-d3)propyl)-2-fluoro-6-methylbenzamide], the IC50 falls from 1.2 nM to 0.6 nM (2-fold). The second is the more potent here.

Compound `Nc1nc2cc(-c3ccc(OC(F)F)c(C(=O)NCC(F)(F)[C@@H](O)c4ccc(F)cc4)c3F)ccn2n1` [Example 306, (S)-3-(2-amino-[1,2,4]triazolo[1,5-a]pyridin-7-yl)-N-(2,2-difluoro-3-(4-fluorophenyl)-3-hydroxypropyl)-6-(difluoromethoxy)-2-fluorobenzamide] has an IC50 of 4.2 nM.

Same assay, conditions: read-out: pMLKL IC50; HT29-L23 cells; necroptosis induced with TNFα, SMAC mimetic and Z-VAD, 6 h; maximal inhibition defined by Nec1s

Compared with `Cc1ccc(-c2ccn3nc(N)nc3c2)c(F)c1C(=O)NCCC(O)c1cccc(Cl)c1` (single isomer, unassigned) [Example 44, 3-(2-amino-[1,2,4]triazolo[1,5-a]pyridin-7-yl)-N-(3-(3-chlorophenyl)-3-hydroxypropyl)-2-fluoro-6-methylbenzamide], `Nc1nc2cc(-c3ccc(Cl)c(C(=O)NCCC(O)c4ccc(C(F)(F)F)cc4)c3F)ccn2n1` (single isomer, unassigned) [Example 86, 3-(2-amino-[1,2,4]triazolo[1,5-a]pyridin-7-yl)-6-chloro-2-fluoro-N-(3-hydroxy-3-(4-(trifluoromethyl)phenyl)propyl)benzamide] is 3-fold higher in IC50: 2.5 nM for the first, 7.5 nM for the second. The first is the more potent here.

Target: T1, His-GST-TVMV-hRIPK1(1-324) (Homo sapiens, UniProt Q13546)
T1 construct: The coding region of human RIPK1(1-324) flanked by NdeI site at 5′ end; made in house; host or cells: Spodoptera frugiperda Sf9 insect cells (baculovirus, Bac-to-Bac)
T1 sequence (Q13546 1-324): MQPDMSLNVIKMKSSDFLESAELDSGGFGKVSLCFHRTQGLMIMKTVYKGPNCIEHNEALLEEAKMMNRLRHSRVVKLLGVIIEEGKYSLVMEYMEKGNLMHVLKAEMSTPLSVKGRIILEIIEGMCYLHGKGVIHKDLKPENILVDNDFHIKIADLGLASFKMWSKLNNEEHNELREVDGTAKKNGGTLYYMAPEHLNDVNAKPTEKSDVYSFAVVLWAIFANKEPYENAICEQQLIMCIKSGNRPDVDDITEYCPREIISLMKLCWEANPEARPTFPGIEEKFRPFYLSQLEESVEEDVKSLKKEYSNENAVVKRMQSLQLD
Test: biochemical
Format: binding
Details: HTRF probe displacement, 1 h at rt; read-out: RIPK1 IC50

Compared with `Cc1ccc(-c2ccn3nc(N)nc3c2)c(F)c1C(=O)NCCC(O)c1cccc(Cl)c1` (single isomer, unassigned) [Example 44, 3-(2-amino-[1,2,4]triazolo[1,5-a]pyridin-7-yl)-N-(3-(3-chlorophenyl)-3-hydroxypropyl)-2-fluoro-6-methylbenzamide], `Cc1ccc(-c2ccn3nc(N)nc3c2)c(F)c1C(=O)NCCC(O)c1ccc(Cl)c(Cl)c1` (stereo not shown) [Example 32, 3-(2-amino-[1,2,4]triazolo[1,5-a]pyridin-7-yl)-N-(3-(3,4-dichlorophenyl)-3-hydroxypropyl)-2-fluoro-6-methylbenzamide] is 1.7-fold higher in IC50: 1.3 nM for the first, 2.2 nM for the second. The first is the more potent here.

First: Nc1nc2cc(-c3ccc(Cl)c(C(=O)NCCC(O)c4ccc(C(F)(F)F)cc4)c3F)ccn2n1 (single isomer, unassigned) [Example 86, 3-(2-amino-[1,2,4]triazolo[1,5-a]pyridin-7-yl)-6-chloro-2-fluoro-N-(3-hydroxy-3-(4-(trifluoromethyl)phenyl)propyl)benzamide]
Second: Cc1ccc(C(O)C(F)(F)CNC(=O)c2c(Cl)ccc(-c3ccn4nc(N)nc4c3)c2F)cc1 (stereo not shown) [Example 172, 3-(2-amino-[1,2,4]triazolo[1,5-a]pyridin-7-yl)-6-chloro-N-(2,2-difluoro-3-hydroxy-3-(p-tolyl)propyl)-2-fluorobenzamide]
The IC50 of the first is 1.7-fold higher: 2.2 nM for the first, 1.3 nM for the second. The second is the more potent here.

Compared with `[2H]C([2H])([2H])c1ccc(-c2ccn3nc(N)nc3c2)c(F)c1C(=O)NCC(F)(F)C(O)(c1ccc(F)cc1)C([2H])([2H])[2H]` (single isomer, unassigned) [Example 243, 3-(2-amino-[1,2,4]triazolo[1,5-a]pyridin-7-yl)-N-(2,2-difluoro-3-(4-fluorophenyl)-3-hydroxybutyl-4,4,4-d3)-2-fluoro-6-(methyl-d3)benzamide], `Cc1ccc(-c2ccn3nc(N)nc3c2)c(F)c1C(=O)NCC(F)(F)C(C)(O)c1ccc(F)cc1` (racemic) [Example 18, 3-(2-amino-[1,2,4]triazolo[1,5-a]pyridin-7-yl)-N-(2,2-difluoro-3-(4-fluorophenyl)-3-hydroxybutyl)-2-fluoro-6-methylbenzamide] is 1.9-fold higher in IC50: 4.7 nM for the first, 8.9 nM for the second.

First: Nc1nc2cc(-c3ccc(OC(F)F)c(C(=O)NCC(F)(F)[C@@H](O)c4ccc(F)cc4)c3F)ccn2n1 [Example 306, (S)-3-(2-amino-[1,2,4]triazolo[1,5-a]pyridin-7-yl)-N-(2,2-difluoro-3-(4-fluorophenyl)-3-hydroxypropyl)-6-(difluoromethoxy)-2-fluorobenzamide]
Second: [2H]C([2H])([2H])OC(c1ccc(F)cc1)C(F)(F)CNC(=O)c1c(C)ccc(-c2ccn3nc(N)nc3c2)c1F (single isomer, unassigned) [Example 235, 3-(2-amino-[1,2,4]triazolo[1,5-a]pyridin-7-yl)-N-(2,2-difluoro-3-(4-fluorophenyl)-3-(methoxy-d3)propyl)-2-fluoro-6-methylbenzamide]
The IC50 of the first is 2.6-fold higher: 11 nM for the first, 4.3 nM for the second. The second is the more potent here.

First: Nc1nc2cc(-c3ccc(Cl)c(C(=O)NCC(F)(F)C(O)C4CCC(F)(F)CC4)c3F)ccn2n1 (stereo not shown) [Example 256, 3-(2-amino-[1,2,4]triazolo[1,5-a]pyridin-7-yl)-6-chloro-N-(3-(4,4-difluorocyclohexyl)-2,2-difluoro-3-hydroxypropyl)-2-fluorobenzamide]
Second: CC(O)(c1ccc(F)cc1)C(F)(F)CNC(=O)c1c(Cl)ccc(-c2ccn3nc(N)nc3c2)c1F (stereo not shown) [Example 87, 3-(2-amino-[1,2,4]triazolo[1,5-a]pyridin-7-yl)-6-chloro-N-(2,2-difluoro-3-(4-fluorophenyl)-3-hydroxybutyl)-2-fluorobenzamide]
The IC50 of the first is 2.7-fold lower: 3.2 nM for the first, 8.6 nM for the second. The first is the more potent here.

Going from `COc1c(-c2ccc(C)c(C(=O)NCC[C@H](O)c3ccc(Cl)cc3)c2F)ccn2nc(N)nc12` [compound 133] to `[2H]C([2H])([2H])c1cccc(C(O)C(F)(F)CNC(=O)c2c(C([2H])([2H])[2H])ccc(-c3ccn4nc(N)nc4c3)c2F)c1F` (single isomer, unassigned) [Example 206, 3-(2-amino-[1,2,4]triazolo[1,5-a]pyridin-7-yl)-N-(2,2-difluoro-3-(2-fluoro-3-(methyl-d3)phenyl)-3-hydroxypropyl)-2-fluoro-6-(methyl-d3)benzamide], the IC50 rises from 3.8 nM to 7.7 nM (2-fold). The first is the more potent here.

Same assay, conditions: Table 23, representative compounds from WO2018/148626; read-out: RIPK1 IC50

Work on `COc1ncc(-c2ccn3nc(N)nc3c2)cc1C(=O)NCC[C@H](O)c1ccc(Cl)cc1` [Example 157] yielded an IC50 of 59 nM.
